Experimental data as given in PMC4537502 (Psychopharmacology, 2015).
Like-named read-outs stand apart in the source and are kept apart here.

What was measured:
D2R [1] = conditions: read-out: Kd in rat brain tissue; ref Köhler et al. [1985]; cited from earlier work
sigma-1R [2] = conditions: ref Sahlholm et al. [2013], cited from earlier work; for Ki: ^3H-(+)-pentazocine competition, read-out: high-affinity Ki at sigma-1R
D2R [3] = molecular target: D2R; parameters: method as in Pettersson et al. [2010]; conditions: ref Pettersson et al. [2010]; read-out: high-affinity Ki at D2R; cited from earlier work
D2R [4] = test system: D2R; parameters: method as in Tolboom et al. [2015]; conditions: human subjects, ref Tolboom et al. [2015], cited from earlier work
striatal D2Rs = test system: striatal D2Rs; parameters: method as in Ekesbo et al. ([1999]); conditions: rhesus monkeys, continuous infusion 3 mg/kg/h, ref Ekesbo et al. ([1999]); cited from earlier work
sigma-1R [5] = molecular target: T1, sigma-1R (Rattus norvegicus, UniProt Q9R0C9); assay: microPET with ^11C-SA4503, Logan graphical analysis and Cunningham-Lassen plot (sigma-1R occupancy); assay type: in vivo; conditions: for sigma-1R occupancy: rat brain, Cunningham-Lassen plot
T1 construct: from tissue; host or cells: brain of living rats (Wistar Unilever), in vivo microPET
Protocol: (§1) Because of limited availability of the test drug, the 60 mg/kg dose group was scanned only with ^11C-raclopride.
(§2) After drug administration and about 20 min before each microPET scan, animals were anesthetized with isoflurane (Pharmachemie BV, Haarlem, Netherlands). […] Both tracers were injected as a slow bolus (1 ml of saline-diluted tracer solution infused during a period of 1 min), using a Harvard-style injection pump.
From these samples, 25 μl of whole blood was collected and plasma (25 μl) was then obtained by centrifugation of the remaining sample (5 min at 13,000×g). Radioactivity in plasma and whole blood was determined using a calibrated gamma counter (CompuGamma CS1282, LKB-Wallac, Turku, Finland). Results are expressed as standardized uptake values (SUV), defined as [(plasma activity concentration (MBq/g) × body weight (g) / injected dose (MBq)]. Rat plasma was assumed to have a specific gravity of 1 g/ml.
(§3) Two rats were scanned in each scan session. They were positioned on heating mats in a microPET Focus 220 system, in transaxial position above each other with their brains in the field of view. Body temperature of the animals was kept close to normal with electronic temperature controllers. Heart rate and oxygen level of the blood during the scan were monitored using pulse oximeters (PulseSense, Nonin). […] A list mode protocol was used with a 76-min acquisition time.
(§4) Image reconstruction was performed using microPET Manager 2.3.3.6 (Siemens). The PET data were split according to position along the y-axis, so that a separate data set was acquired for each animal. The list mode data of the emission scans were reframed in a dynamic sequence of 6 × 10, 4 × 30, 2 × 60, 1 × 120, 1 × 180, 4 × 300, and 3 × 600 s (with an additional 960-s frame for the rat that was injected first). The data were reconstructed per time frame employing an iterative reconstruction algorithm (OSEM2D with Fourier rebinning, 4 iterations, and 16 subsets). […] Data sets were corrected for decay, random coincidences, scatter, and attenuation.
Logan graphical analysis was used to calculate regional tracer distribution volumes (VT). The starting time of the Logan fit was 20 min. Metabolite-corrected plasma radioactivity data were used as input function, and (uncorrected) whole blood radioactivity served to estimate the contribution of blood to brain radioactivity measured by the PET camera. […] The PMOD software package was used for curve fitting.

[6] = molecular target: dopamine D2 receptor (D2R) (Rattus norvegicus, UniProt P61169); assay: in vivo
Protocol: as §1, §2, §3, §4
In ^11C-raclopride scans of the brain, three-dimensional regions of interest (ROIs) were manually drawn over the left and right striatum and cerebellum, using the program ASIPro 6.3.3.0 (Siemens). […] Time-activity curves (TACs) were generated for these regions (Fig. 1). The results are expressed as dimensionless standardized uptake values (PET-SUV), defined as [(tissue activity concentration (MBq/g) × body weight (g) / injected dose (MBq)]. Brain tissue was assumed to have a specific gravity of 1 g/ml.
Plateau values for the striatum-to-cerebellum ratio were derived from this curve fit.

D2R [7] = conditions: cited from earlier work
[8] = test system: dopamine release in striatum; conditions: rats, 1.7 mg/kg, ref Ponten et al. [2010]; cited from earlier work
[9] = test system: 6-hydroxydopamine-hemilesioned rats; conditions: 7.9 mg/kg, ref Ponten et al. [2013]; cited from earlier work
Arc gene expression = conditions: rats, 10 mg/kg, ref Waters et al. [2014]; cited from earlier work
rats = conditions: 15.9 mg/kg, ref Rung et al. [2008], Ponten et al. [2010]; cited from earlier work
habituated rats = conditions: 15.9 mg/kg, ref Rung et al. [2008], Ponten et al. [2010]; cited from earlier work
[10] = rat, 3 and 15 mg/kg pridopidine

dopamine D2 receptor (D2R), sequence (P61169 whole entry): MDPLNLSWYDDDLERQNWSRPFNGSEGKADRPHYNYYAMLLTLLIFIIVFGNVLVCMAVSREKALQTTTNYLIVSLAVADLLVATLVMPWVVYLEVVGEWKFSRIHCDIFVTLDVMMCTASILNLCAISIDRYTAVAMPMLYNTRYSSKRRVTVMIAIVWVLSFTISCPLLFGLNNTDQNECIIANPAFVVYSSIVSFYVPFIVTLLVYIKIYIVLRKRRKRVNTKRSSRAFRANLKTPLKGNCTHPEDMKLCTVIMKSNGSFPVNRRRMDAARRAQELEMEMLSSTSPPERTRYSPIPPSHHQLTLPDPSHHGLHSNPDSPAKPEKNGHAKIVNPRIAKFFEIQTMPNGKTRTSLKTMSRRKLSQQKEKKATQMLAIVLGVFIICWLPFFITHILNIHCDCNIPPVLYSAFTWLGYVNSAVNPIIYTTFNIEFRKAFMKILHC
T1 sequence (Q9R0C9 whole entry): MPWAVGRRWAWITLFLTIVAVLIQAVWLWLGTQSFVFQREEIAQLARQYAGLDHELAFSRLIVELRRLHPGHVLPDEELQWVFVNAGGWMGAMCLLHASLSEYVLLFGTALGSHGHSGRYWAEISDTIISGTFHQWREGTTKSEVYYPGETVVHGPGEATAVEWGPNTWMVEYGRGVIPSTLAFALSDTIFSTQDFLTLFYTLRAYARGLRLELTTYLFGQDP

## CCN1CCC[C@H]1CNC(=O)c1c(O)c(Cl)cc(Cl)c1OC (racemic) [^11C-raclopride]
D2R [1]
  Kd: 0.0012 µM

## CCCN1CCC[C@@H](c2cccc(S(C)(=O)=O)c2)C1 [(−)-OSU6162]
sigma-1R [2]
  Ki: ~0.36 µM
sigma-1R [2]; Pettersson et al. [2010]
  affinity for sigma-1R relative to D2R: about two times higher affinity for sigma-1R than for D2R
D2R [3]
  Ki: 0.76 µM
D2R [4]; doses 15 to 90 mg (0.14 to 1.25 mg/kg)
  D2R occupancy: 2 to 33%
D2R [4]
  level at which the dose-occupancy curve appeared to level off: 40%
Striatal D2Rs
  displacement of ^11C-raclopride: 76%

## CCCN1CCC(c2cccc(S(C)(=O)=O)c2)CC1 [pridopidine, 4-[3-(methylsulfonyl)phenyl]-1-propylpiperidine]
sigma-1R [5]; pridopidine 3 mg/kg s.c. 60 min before tracer
  sigma-1R occupancy: 56.7 ± 2.3%
sigma-1R [5]; pridopidine 15 mg/kg s.c. 60 min before tracer
  sigma-1R occupancy: 84.5 ± 1.7%
sigma-1R [5]; rat whole brain and brain regions, 3 and 15 mg/kg pridopidine
  VT of ^11C-SA4503 (Logan graphical analysis): dose-dependent reduction in VT for all regions investigated
sigma-1R [5]; [10]
  area under the brain time-activity curve (AUC) of ^11C-SA4503: significantly decreased
sigma-1R [5]; rat, sc, read-out: sigma-1R occupancy, rat brain, pridopidine 3 mg/kg s.c. 60 min before tracer, Cunningham-Lassen plot
  receptor occupancy at 3 mg/kg: 57 ± 2%
sigma-1R [5]; rat, sc, read-out: sigma-1R occupancy, rat brain, pridopidine 15 mg/kg s.c. 60 min before tracer, Cunningham-Lassen plot
  receptor occupancy at 15 mg/kg: 85 ± 2%
[6]; rat striatum, 60 mg/kg pridopidine s.c.
  reduction of ^11C-raclopride binding: 44–66%
[6]; rat, 3 mg/kg pridopidine
  effect on ^11C-raclopride uptake (time-activity curves): increase tracer uptake in striatum but not in cerebellum
[6]; rat, 15 mg/kg pridopidine
  effect on ^11C-raclopride uptake (time-activity curves): increase tracer uptake in both striatum and cerebellum to a rather minor extent
[6]; rat, 60 mg/kg pridopidine
  effect on ^11C-raclopride uptake (time-activity curves): striking increase of the uptake of ^11C-raclopride in both striatum and cerebellum
[6]; [10]
  changes in ^11C-raclopride binding: No significant changes
[6]; rat, sc, read-out: D2R occupancy (SRTM fit)
  receptor occupancy at 60 mg/kg: 44%
sigma-1R [2]
  Ki: ~0.07 µM
D2R [3]
  Ki: 7.52 µM
D2R [7]; Sprague-Dawley rats, 10 mg/kg, ex vivo radioligand binding, ref Natesan et al. [2006]
  D2R occupancy: 35%
D2R [7]; Sprague-Dawley rats, ex vivo radioligand binding, ref Natesan et al. [2006]
  ED50 of D2R occupancy: 18.99 mg/kg
D2R [7]; rat, ref Natesan et al. ([2006])
  time to maximal D2R occupancy after s.c. injection: ≤ 1 h
D2R [7]; rat, s.c., ref Natesan et al. ([2006])
  time maximal D2R occupancy is maintained: 4 h
[8]
  effect on dopamine release in striatum: increased dopamine release in striatum
[9]
  effect on L-DOPA-induced rotational asymmetry: decreased L-DOPA-induced rotational asymmetry in 6-hydroxydopamine-hemilesioned rats
Arc gene expression
  effect on Arc gene expression in frontal cortex: induced Arc gene expression in frontal cortex
rats
  effect on MK-801- and amphetamine-induced hyperlocomotion: decreased MK-801- and amphetamine-induced hyperlocomotion
Habituated rats
  effect on locomotor activity in habituated rats: increased locomotor activity in habituated rats
